Results taken from patent US11684621B2, “Combination containing sGC stimulators and mineralocorticoid receptor antagonists” (Bayer Pharma Aktiengesellschaft, priority 2016, dated 2023).

Tested on: L-NAME-treated renin transgenic rats (TGR(mRen2)27)
Assay: L-NAME-treated transgenic renin rat (TGR(mRen2)27): mortality and proteinuria
Assay type: in vivo
Details: finerenone 10 mg/kg od, compound of the formula (X) 0.3 mg/kg od, alone or combined; for All-cause mortality during the study period / Survival rate over the study period: L-NAME-treated TGR(mRen2)27 renin rats, daily gavage; for All-cause mortality during the study period: 15 animals per group, placebo mortality 40%; for Survival rate over the study period: study terminated after 40% of placebo animals had died; for Reduction of proteinuria, measured as protein/creatinine quotient in urine / Protein/creatine quotient - % of group A (proteinuria in % reduction from placebo): L-NAME-treated renin transgenic rats; for Reduction of proteinuria, measured as protein/creatinine quotient in urine: versus placebo; for Protein/creatine quotient - % of group A (proteinuria in % reduction from placebo): urine, end of the study, mean ± SEM, relative to placebo group A
Source text: 3.) L-NAME-treated transgenic renin rat (TGR(mRen2)27)
The transgenic renin rat ‘TGR(mRen2)27’ is a hypertensive rat line developed by Mullins and Ganten which overexpresses the Ren-2 gene of the mouse. Additional administration of the nitrogen monoxide synthase inhibitor L-NAME induces endothelial dysfunction which increases morbidity and mortality in this model. Unless subjected to life-long antihypertensive therapy, homozygous animals die of secondary complications such as heart and kidney failure or stroke.
Male TGR(mRen2)27 renin rats aged 10 to 20 weeks are randomized to different pharmacological treatment groups and a placebo group. In addition, the nitrogen monoxide synthase inhibitor L-NAME is administered via the drinking water in a concentration of 30 to 100 mg/l. During the entire experiment, drinking water and feed are available ad libitum to the animals. The substances are administered via the feed or daily by gavage for 4-10 weeks. Animals treated in the same way but receiving either only the solvent or the feed without test substance serve as placebo group. During the experiment, the systolic blood pressure is determined at regular intervals using a tail cuff, and proteinuria and urine electrolyte composition are determined by collecting the urine in metabolic cages. At the end of the experiment, haemodynamic parameters (blood pressure, heart rate, inotropism [dp/dt], relaxation time [tau], maximum left ventricular pressure, left ventricular end-diastolic pressure [LVEDP]) are measured, and the weights of heart, kidney and lung are determined, protein elimination and biomarkers (e.g. ANP, RIA Kit RK 005-24, Phoenix Pharmaceuticals, Inc., USA, cGMP, RIA Kit RE29075, IBL International GmbH, Hamburg, Germany, renin, angiotensin I, RIA Kit CA-1533, DiaSorin S.p.A., Italy, and aldosterone, P2714, DiaSorin S.p.A., Italy) and gene expression of biomarkers by RT/TaqMan PCR following RNA isolation from cardiac and renal tissue are determined.
Cardiac and cardiovascular disorders as well as renal and cardiorenal disorders are characterized by high patient morbidity and also high mortality. This morbidity and mortality, together with various risk factors such as hypertension, can be reproduced very accurately in the above-described animal model of the L-NAME-treated renin transgenic rat. Therefore, this animal model, for example, was used to investigate MR antagonists such as, for example, finerenone according to the compound of the formula (IV) and sGC stimulators such as, for example, the compound of the formula (X), and combinations of both: […]
For example, the MR antagonist finerenone, corresponding to the compound of the formula (IV), and the sGC stimulator, corresponding to the compound of the formula (X), were tested on their own and in combinations in TGR(mRen2)27 renin rats aged 10 to 20 weeks. In addition, the nitrogen monoxide synthase inhibitor L-NAME was administered via the drinking water in a concentration of 30 to 100 mg/l. During the entire experiment, drinking water and feed were available ad libitum to the animals. The substances were administered daily by gavage for 4-10 weeks. Animals treated in the same way but receiving only the solvent for the test substance served as placebo group. In the test series, in addition to placebo (group A), the MR antagonist finerenone corresponding to the compound of the formula (IV) (10 mg/kg od) (group B) and the sGC stimulator corresponding to the compound of the formula (X) (0.3 mg/kg od) (group C) on their own and a combination of finerenone corresponding to the compound of the formula (IV) (10 mg/kg od)+compound of the formula (X) (0.3 mg/kg od) (group D) were administered. In this study, 15 animals were used per group (A, B, C, D) (Table 1): […]

SMILES: COC(=O)Nc1c(N)nc(-c2nn(Cc3ccccc3F)c3ncc(F)cc23)nc1N [compound of the formula (X), methyl {4,6-diamino-2-[5-fluoro-1-(2-fluorobenzyl)-1H-pyrazolo[3,4-b]pyridin-3-yl]pyrimidin-5-yl}carbamate]
- All-cause mortality during the study period: 13%
- Survival rate over the study period: 87%
- Reduction of proteinuria, measured as protein/creatinine quotient in urine: 51%
- Protein/creatine quotient - % of group A (proteinuria in % reduction from placebo): −51 + 20%

SMILES: CCOc1ncc(C)c2c1[C@H](c1ccc(C#N)cc1OC)C(C(N)=O)=C(C)N2 [finerenone, (S)-4-(4-cyano-2-methoxyphenyl)-5-ethoxy-2,8-dimethyl-1,4-dihydro-1,6-naphthyridine-3-carboxamide]
- All-cause mortality during the study period: 20%
- Survival rate over the study period: 80%
- Reduction of proteinuria, measured as protein/creatinine quotient in urine: 58%
- Protein/creatine quotient - % of group A (proteinuria in % reduction from placebo): −58 + 16%
